The values below come from US12387622B2, “Systems and methods for modeling veins and associated blood vessel components” (The Texas A&M University System, priority 2019, dated 2025).

Test [1] concerns thrombi formation within venous valves 50A-50C. As to the kind of experiment: Vein-on-a-chip: anticoagulant-treated blood perfused through TNF-α treated, HUVEC-lined venous valves; platelets and fibrin imaged. Type of test: cell-based, human. The conditions noted are these: for thrombi at cusps 52 and at the microfluidic channel 44B: DOAC dosage increased to 500 ng/ml; for thrombi at cusps 52 and at the microfluidic channel 44B / fibrin rich clots in cusps 52 / thrombi in the luminal portion of the microfluidic model 40: venous valve 50B treated with TNF-α. The method, then:
In this embodiment, to form microfluidic chip 40, microelectronic and semiconductor fabrication techniques were used to develop an SU-8 photoresist-based master mold. Particularly, computational fluid dynamics simulations were carried out to arrive at the open venous valve designs (e.g., venous valves 50A-50C) which contained recirculations as observed in venous valve cusps in vivo. The embodiments of the finalized venous valve designs shown in FIGS. 3-5 were developed using solid modeling computer-aided design (CAD) software (e.g., the SolidWorks™ software package published by Dassault Systemes) and a photomask of the finalized valve designs was used to fabricate the master mold using epoxy-based negative photoresist—SU-8 on a silicon wafer in this embodiment. In this embodiment for forming microchannels 44A-44C, once the master molds were fabricated, the wafers were treated with Silane, and Polydimethylsiloxane (PDMS) having an […] to crosslinker ratio of about 10:1 was poured into the master mold. In this embodiment, once the PDMS was set, the PDMS was striped and bonded to a PDMS coated glass slide to form microchannels 44A-44C, each microchannel 44A-44C having PDMS coated on each side thereof. Additionally, PDMS, being hydrophobic, was treated with plasma and then silanized with (3-aminopropyl) triethoxylsilane (APTES) to make the PDMS hydrophilic. In this embodiment, microchannels 44A-44C were then filled with type-I rat tail collagen of about 200 micrograms per milliliter (ug/ml) and fibronectin of about 50 ug/ml to form an extracellular matrix (ECM) configured to support endothelial cell growth on the walls of each microchannel 44A-44C.
(§1) In this embodiment for forming microchannels 44A-44C, human umbilical vein endothelial cells (HUVECs) were cultured over a layer of the ECM coated on microchannels 44A-44C; however, in other embodiments, human or animal cell lines other than HUVECs may also be used in the formation of microchannels 44A-44C. In this embodiment, HUVECs, a human primary cell line derived from the human umbilical vein, were acquired and seeded on T75 flasks coated with type I rat tail collagen of about 5 micrograms (μg) per 5 cm^2, the HUVECs being seeded at about 50,000 cells per flask. In this embodiment, the endothelial growth media (EGM) (EGM-2 MV, promocell in this embodiment) disposed in the flasks were replaced every two days, and once the flasks were 80% confluent, the HUVECs were detached from the flasks and seeded on microchannels 44A-44C with about 20-30 microliters (μl) of cell suspension having cell density of about 1e7 cells per milliliter (ml). The cell suspension was passed through a cell strainer to remove debris and cell aggregates that were larger than about 40 μm in diameter. In this embodiment, microchannels 44A-44C were then first filled with cell suspension and kept upside down for about 20 minutes to seed the top face of microchannels 44A-44C, and then microchannels 44A-44C were again filled with cell suspension and kept upright for 20 minutes to seed the bottom faces of microchannels 44A-44C.
To induce activation, the vascular lumen coated to microchannels 44A-44C was treated with the tumor necrosis factor (TNF) TNF-α at about 0-200 nanograms per milliliter (ng/ml) in this embodiment. Particularly, the seeded microchannels 44A-44C were perfused with media at about 1 ul/min for about 24 hours. Confluent lumen was formed on the walls of microchannels 44A-44C at the end of 24 hours. Additionally, in this embodiment, different doses TNF-α, a cytokine, was introduced into the confluent lumen of the channels for about 18 hours to observe the dose dependent inflammation of the endothelial cells in the straight sections of microchannels 44A-44C and venous valve cusps of venous valves 50A-50C.
In this embodiment of the formation of microchannels 44A-44C, to evaluate role of hypoxia, microfluidic chip 40 was incubated at 3.9% oxygen. […]

Test [2] deals with human umbilical vein endothelial cells (HUVECs). As to the kind of experiment: Vein-on-a-chip: TNF-α stimulation of HUVEC lumen followed by blood perfusion at venous shear. Type of test: cell-based. The method, then:
as §1, with “The cell suspension was passed through a cell strainer to remove debris and cell aggregates that were larger than about 40 μm in diameter. In this embodiment, microchannels 44A-44C were then first filled with cell suspension and kept upside down for about 20 minutes to seed the top face of microchannels 44A-44C, and then microchannels 44A-44C were again filled with cell suspension and kept upright for 20 minutes to seed the bottom faces of microchannels 44A-44C.” left out
In this embodiment of the formation of microchannels 44A-44C, to evaluate role of hypoxia, microfluidic chip 40 was incubated at 3.9% oxygen. […] Fluorescently labelled platelets and fibrin were visualized and quantitated via microscopes positioned adjacent microchannels 44A-44C. Additionally, in this embodiment, typical vascular identity and adhesion markers were measured through immunohistochemistry. […]

Setting [3] is: standard dosage 50 ng/ml of Apixaban in blood.
Where [4] appears, read: standard dosage 100 ng/ml of Rivaroxaban in blood.

In the case of `COc1ccc(-n2nc(C(N)=O)c3c2C(=O)N(c2ccc(N4CCCCC4=O)cc2)CC3)cc1` [Apixaban], the “thrombi at cusps 52 and at the microfluidic channel 44B” value in test [1] is on record as “thrombi detected”. In test [1] (setting [3]), the “fibrin rich clots in cusps 52” value is given as “fibrin rich clots were present” and the “thrombi in the luminal portion of the microfluidic model 40” value is “unobservable thrombi”.
As to `O=C(NC[C@H]1CN(c2ccc(N3CCOCC3=O)cc2)C(=O)O1)c1ccc(Cl)s1` [Rivaroxaban], in test [1], the “thrombi at cusps 52 and at the microfluidic channel 44B” value was “thrombi detected”. In test [1] (setting [4]), the “fibrin rich clots in cusps 52” value is listed as “fibrin rich clots were present” and the “thrombi in the luminal portion of the microfluidic model 40” value was “unobservable thrombi”.
Turning to Heparin, in test [1] (addition of heparin in blood, dose dependent), the “thrombi formation within venous valves 50A-50C” value is on record as “decreased the thrombi formation”. Also, in test [1] (higher Heparin dosage 0.50 IU/ml, TNF-α 5 ng/ml), the “fibrin in cusps 52” value is reported as “only reduced at the higher Heparin dosage”. In addition, the “fibrin within microfluidic model 40” value in test [1] (lower dose of Heparin (approximately 0.25 IU/ml), TNF-α 5 ng/ml) is “reduction in fibrin resulted”. The “thrombi formed in microfluidic channels 44A-44C” value in test [1] (when the dosage of Heparin was increased (0.25 to 0.50 IU/ml), valve 50B treated with TNF-α 5 ng/ml, FIG. 38) is “reduced significantly”.
With TNF-α, the “thrombi in venous valves upon stimulation of HUVECs” value in test [2] (blood perfused at venous shear of about 0.5 dynes/cm^2, no thrombi with untreated HUVECs) is recorded as “thrombi were detected”. In addition, the “clot formation in lumen treated with varying doses of cytokine” value in test [2] (blood perfused at venous shear rates) was “fibrin rich clots were predominantly formed in the venous valve cusps”.
